Consider 2 molecules from patent US20100330093A1, “TREATMENT OF MELANOMA WITH ALPHA THYMOSIN PEPTIDES IN COMBINATION WITH ANTIBODIES AGAINST CYTOTOXIC T LYMPHOCYTE-ASSOCIATED ANTIGEN 4 (CTLA4)” (SciClone Pharmaceuticals, Inc., priority 2007, published 2010).

No end group written: not given here.

Series [1] has as its system murine B16 melanoma cells. The series can be described thus: Subcutaneous murine B16 melanoma tumor model in C57BL/6 mice (tumor volume, tumor weight). The settings on record: for percent inhibition of tumor weight (PITW): Day 16 necropsy, DTIC 5 mg/kg s.c. daily, TA-1 6 mg/kg s.c. daily, 9H10 i.p. Day 3 (100 μg), Day 6 (50 μg), Day 9 (50 μg), vs vehicle. The series is classed as in vivo. The procedure:
(§1) C57BL/6 mice were implanted subcutaneously with murine B16 melanoma cells (Cell Culture Center, Institute of Basic Medical Sciences, Peking Union Medical College and Chinese Academy of Medical Sciences PUMC&CAMS, Beijing, P.R.China), followed by treatment with TA-1 or DTIC alone or in combination for 14 consecutive days. The day of tumor implantation was defined as Day 0. Meanwhile 9H10 was given in two groups via i.p. on Day 3, 6 and 9. TA-1 and DTIC were administered daily by s.c. injection. In total, 5 groups of mice (n=10) were used: Group 1: vehicle; Group 2: DTIC 5 mg/kg; Group 3: TA-1 6 mg/kg; Group 4: DTIC 5 mg/kg+9H10 (Day 3 (100 μg), Day 6 (50 μg), Day 9 (50 μg)); Group 5: DTIC 5 mg/kg+TA-1 6 mg/kg+9H10 (Day 3 (100 μg), Day 6 (50 μg), Day 9 (50 μg)) (Table 1). The animals were six weeks old and weighed between 18 and 22 grams at the start of the study. Tumor volume and body weight were measured every three days, and tumor weights were measured on Day 16 at the end of the study.
Phosphate buffered saline (PBS) was used as the negative control article (vehicle). TA-1 solution was stored at 2-8° C. and used up in one week. DTIC(SIGMA) was initially dissolved in 0.01 N HCl and then diluted with PBS to 1 mg/mL. DTIC dosing solution was kept on ice, protected from light, and used within one day. Final dosing solutions were prepared on the day of use by diluting the stock solution to 1× with water. The antibody reagent 9H10 (EBIOSCIENCE) was a ready-to-use agent at a concentration of 1 mg/mL.
Mortality and moribundity were checked twice daily, the body weights were recorded once every 3 days, and tumors were measured using a caliper once every 3 days. […]
Based on the tumor size, the tumor volume (TV) was calculated with the formula: [TV=(Length×Width×Width)/2]. And the percent inhibition (PI) of TV (PITV) was calculated according to the equation below: […]
The anti-tumor effect of the test article was further evaluated with tumor weight (TW) measured on day of necropsy (Day 16). The PI of TW was calculated using the equation below: […]

Series [2] in a line: Body weight of B16 tumor-bearing C57BL/6 mice during treatment. The settings on record: TA-1 6 mg/kg s.c. daily, alone or in combination, throughout the course of the study. The series is classed as in vivo. On the procedure: as §1
Mortality and moribundity were checked twice daily, the body weights were recorded once every 3 days, and tumors were measured using a caliper once every 3 days. At the end of the study (Day 16), the animals were euthanized by CO2 asphyxiation, and the tumors were excised and weighed.

In the case of `CN(C)/N=N/c1[nH]cnc1C(N)=O` [DTIC, dacarbazine, reference compound], the “percent inhibition of tumor weight (PITW)” value in series [1] amounted to 28.41%.

With “thymosin alpha 1 (Ac-SDAAVDTSSEITTKDLKEKKEVVEEAEN; ends and bridges not checked; UniProt P06454 2-29, looked up) [TA-1, 28 amino acid peptide with a molecular weight of 3108, initially isolated from Thymosin Fraction 5]”, in series [1] (Day 9, n=10 per group), the “mice with palpable tumors” value is listed as “most mice”. In addition, in series [1], the “percent inhibition of tumor weight (PITW)” value was 43.35%. The “loss of body weight” value in series [2] was “did not cause any loss of body weight”.
